Test results published in patent US20240228474A1, “ANTIBACTERIAL COMPOUND” (DISCUVA LIMITED, priority 2021, published 2024).
≈ marks a conversion by molar mass, not a printed value.

How the values were obtained:
[1] = tested on: Klebsiella pneumonia (100 isolates); test: MIC90 by broth microdilution (EUCAST), 100 isolates; type: cell-based
Method: (§1) Minimum Inhibitory Concentration (MIC90) versus 100 isolates of Escherichia coli and Klebsiella pneumonia were determined. The Minimum Inhibitory Concentration at which 90% of the isolates (strains) are inhibited (MIC90) were measured by broth microdilution in line with EUCAST susceptibility testing standards (www.eucast.org). Bacterial inocula were prepared at ca 1×10^6 CFU/mL by diluting 100-fold a 0.5 McFarland suspension. Antibacterial panels containing 50 μl of antibacterial solutions at 2× the final concentrations were diluted 2-fold with 50 μl of inoculum to give a final inoculum of ca 5×10^5 CFU/ml and desired test concentrations of antibacterial agents (0.03-64 μg/mL). The plates were incubated according to the guidelines of the Clinical and Laboratory Standards Institute (Clinical and Laboratory Standards Institute. Methods for Dilution Antimicrobial Susceptibility Tests for Bacteria That Grow Aerobically; Approved Standard-Eleventh Edition, CLSI document […], 11 Jan. 2018). The MIC90 (μg/ml) is the MIC value at which greater than or equal to 90% of the isolates (strains) within a test population are inhibited.

[2] = tested on: Escherichia coli (100 isolates); test: as above; type: cell-based
Method: as §1

[3] = tested on: Klebsiella pneumoniae ATCC 43816; test: Murine respiratory infection proof-of-concept study, IV bolus; type: in vivo
Method: Compound (I) and comparative compound (III) were evaluated in proof-of-concept studies in murine models for the treatment of a respiratory infection with Gram-negative bacteria of the order Enterobacterales, a bacteraemia or bloodstream infection with Gram-negative bacteria of the order Enterobacterales, and a urinary tract infection with Gram-negative bacteria of the order Enterobacterales. Each dot, triangle or square indicator represents a single mouse. LOD refers to the limit of detection of the bacteria. […] Each of the proof-of-concept studies was carried out separately. By vehicle is meant pharmaceutically acceptable carrier or excipient. For the proof-of-concept study for the treatment of a respiratory infection caused or exacerbated by Gram-negative bacteria of the order Enterobacterales, CD-1 mice were infected with Klebsiella pneumoniae ATCC 43816. Two hours after infection (‘pre-treatment’ in FIG. 2), a vehicle (20% hydroxypropyl β cyclodextrin) containing no compound (I) or comparative compound (III), or a vehicle (20% hydroxypropyl β cyclodextrin) containing compound (I) or comparative compound (III), was administered by IV bolus at 20 mg/kg, TID (8 hrs apart), over one day.

[4] = Lipophilicity, Log P measured with SiriusT3 (octanol titration); type: physicochemical; settings: octanol / aqueous sample solution
Method: Log P values of compound (I) and comparative compound (III) were measured using the SiriusT3 instrument from Sirius Analytical by performing an acid-based titration and measuring the shift in pKa when the sample solution is in contact with an immiscible solvent (octanol). Log P for the comparative compound (II) was calculated using Marvin (physico-chemical calculation software). The lipophilicity data for compound (I) and comparative compounds (II) and (III) was collected in separate experiments carried out on different days, and compared in Table 5.

E. coli UT189 = test: Murine urinary tract infection proof-of-concept study, IV bolus; type: in vivo
Method: Compound (I) and comparative compound (III) were evaluated in proof-of-concept studies in murine models for the treatment of a respiratory infection with Gram-negative bacteria of the order Enterobacterales, a bacteraemia or bloodstream infection with Gram-negative bacteria of the order Enterobacterales, and a urinary tract infection with Gram-negative bacteria of the order Enterobacterales. Each dot, triangle or square indicator represents a single mouse. LOD refers to the limit of detection of the bacteria. […] Each of the proof-of-concept studies was carried out separately. By vehicle is meant pharmaceutically acceptable carrier or excipient. For the proof-of-concept study for the treatment of a urinary tract infection with Enterobacterales, female C3H/HeN mice were infected with E. coli UT189. Twenty-four hours after infection (‘pre-treatment’ in FIGS. 4a-c), a vehicle (20% hydroxypropyl β cyclodextrin) containing no compound (I) or comparative compound (III), or a vehicle (20% hydroxypropyl β cyclodextrin) containing compound (I) or comparative compound (III), was administered by IV bolus of 20 mg/kg, TID (8 hrs apart), over 3 days.

[5] = tested on: 44 ligands (including receptors, transporters, ion channels, enzymes and kinases); test: In vitro safety pharmacology binding assays (CEREP profile); settings: 10 μM, 44 ligands tested
Method: In vitro pharmacology binding assays were carried out for compound (I), comparative compound (II) and comparative compound (III) to evaluate the percentage of inhibition against 44 ligands (including receptors, transporters, ion channels, enzymes and kinases) at a concentration of 10 μM of compound (I), comparative compound (II) or comparative compound (III). Compound binding was calculated as a percentage of inhibition of the binding of a radioactively labelled ligand specific for each target. Results showing an inhibition higher than 50% are considered to represent discernible effects of compound (I), comparative compound (II) or comparative compound (III). […] The in vitro pharmacology binding assays for compound (I) and comparative compounds (II) and (III) was carried out separately over different days, and compared in FIGS. 1a, 1b, 1c, and 1d.

[6] = tested on: Klebsiella pneumoniae ATCC 43816; test: Further murine respiratory infection study, intravenous infusion; type: in vivo; settings: 26 h
Method: Compound (I) was evaluated in further proof-of-concept studies in murine models for the treatment of a respiratory infection with Gram-negative bacteria of the order Enterobacterales, and a urinary tract infection with Gram-negative bacteria of the order Enterobacterales. Each dot, triangle or square indicator represents a single mouse. LOD refers to the limit of detection of the bacteria. […] Each of the proof-of-concept studies was carried out separately. By vehicle is meant pharmaceutically acceptable excipient or carrier. For the further proof-of-concept study for the treatment of a respiratory infection caused or exacerbated by Gram-negative bacteria of the order Enterobacterales, male CD-1 mice were infected with Klebsiella pneumoniae ATCC 43816. Two hours after infection (‘pre-treatment’ in FIG. 5), mice were either treated with a vehicle control (phosphate buffer) containing no compound (I), or a vehicle (phosphate buffer) containing compound (I), administered by intravenous infusion for 1 hour (QD) with a dose of 20 mg/kg of compound (I). For the mice that received the vehicle control containing no compound (I), and some mice who received the vehicle containing compound (I), an additional 1-hour continuous intravenous infusion was administered 3 hours after the time at which the first administration begun (BID, 3 hrs apart).

[7] = IV bolus 20 mg/kg TID over 3 days, 96 h after initial infection
[8] = difference in log reduction, 96 h
[9] = 1 h IV infusion 20 mg/kg twice (BID, 3 hrs apart)

MIC Range [1]: 0.25 to 8.00 µg/mL
MIC90 ([1]; Klebsiella pneumoniae): 2 µg/mL (≈ 5.1 µM)
MIC90 [2]: 1 µg/mL (≈ 2.55 µM)
MIC Range [2]: 0.12 to 4.00 µg/mL
logP [4]: 1.6
Compound: Cc1cnccc1-c1[nH]c(N)nc1-c1ccc2c(c1)N(C(=O)C(C)(C)N)CCO2 [Compound (I), 2-amino-1-(6-(2-amino-5-(3-methylpyridin-4-yl)-1H-imidazol-4-yl)-2,3-dihydro-4H-benzo[b][1,4]oxazin-4-yl)-2-methylpropan-1-one]
reduction of bacterial burden in the lung compared to vehicle ([3]; CD-1 mice, IV bolus 20 mg/kg TID over one day, 26 h from initial infection): 6.24 log
more efficacious than comparative compound (III), lung ([3]; difference in log reduction, 26 h): 2 log
bacterial burden in the urine at end of study (E. coli UT189; IV bolus 20 mg/kg TID over 3 days, 96 h): below the limit of detection (LOD)
reduction of bacterial burden in the bladder compared to vehicle (E. coli UT189; [7]): 5.67 log
reduction of bacterial burden in the kidney compared to vehicle (E. coli UT189; [7]): 4.73 log
more efficacious than comparative compound (III), bladder (E. coli UT189; [8]): 3 log
more efficacious than comparative compound (III), urine (E. coli UT189; [8]): 3 log
reduction of bacterial burden in the urine compared to vehicle (E. coli UT189; female C3H/HeN mice, IV bolus 20 mg/kg TID over 3 days, 96 h after initial infection): 6.59 log
ligands with inhibition higher than 50% [5]: only a single ligand
reduction of bacterial burden in the lung compared to pre-treatment (stasis levels) ([6]; 1 h IV infusion 20 mg/kg once (QD)): 0.95 log
reduction of bacterial burden in the lung compared to pre-treatment (stasis levels) [6, 9]: 1.80 log
reduction of bacterial burden in the lung compared to vehicle [6, 9]: 5.20 log
reduction of bacterial burden in the lung compared to vehicle ([6]; male CD-1 mice, 1 h IV infusion 20 mg/kg once (QD)): 4.35 log
